Data taken from US20230096528A1, “Pharmaceutical Composition for Treatment or Prevention of Multiple Inflammatory disorders” (priority 2019, published 2023).

Legend:
[1] = system: DSS-induced colitis in mice; test: Dextran sulfate sodium (DSS)-induced colitis in mice (Example 3); type: in vivo
Text: This example provides the results of an in vivo study in a dextran sulfate sodium (DSS)-induced colitis in mice model. Inflammatory bowel diseases (IBD), mainly comprising ulcerative colitis and Crohn's Disease, are complex and multifactorial diseases with unknown etiology. To study human IBD mechanistically, a number of murine models of colitis have been developed. These models are tools to decipher underlying mechanisms of IBD pathogenesis as well as to evaluate potential therapeutics. […] Moreover, many existing IBD-approved drugs have been studied in this model to allow a comparison of new potential drug compounds as compared with existing drugs with approved IBD indications. […] mice were divided into 5 groups of 3-10 mice, provided with standard mouse chow diet ad libitum, and housed up to 5 per cage. Dexamethasone 21-phosphate disodium salt (DMS; Alfa Aesar Catalog #J64083-1G, Lot R02F035) (was used as a positive control. Hemoccult kits were obtained from Beckman (Hemoccult SENSA kit). Dextran sodium sulfate (DSS) reagent grade (MPI Catalog #160110, Lot #6046H, MW 36,000-50,000, CAS 9011-18-1) was supplemented in the water of certain groups to induced IBD-like symptoms. On day −3 treatment began prior to DSS delivery. On day 1 all mice were pre-weighed and given fresh 4-5% DSS in water every day for 5 days and water is then given for the remainder of the study to elicit disease. An additional control group was given water (no DSS) for the duration of the study (10 days). Body weight was measured daily, fecal blood status (hemoccult) was measured 3× per week, fecal consistency 3× per week and general health determined daily. Mice were sacrificed on day 10 and serum obtained for cytokine analysis and colon length and weight determined. There were two control groups of water only and DSS without drug treatment. There were two treatment groups at 69.3 mg/kg (n=10) bid and 23.1 mg/kg bid (n=10).

[2] = system: mouse acute lung injury plus hyperthermia model; test: Mouse acute lung injury plus hyperthermia model (Example 7); type: in vivo; settings: LPS plus hyperthermia, CD-1 mice
Protocol: Lung lavage fluid was measured and cytokine analysis.

[3] = system: mouse peritoneum macrophages; test: LPS-stimulated mouse peritoneal macrophages, cytokine analysis (Example 5); type: cell-based, mice
Protocol: This example provides an in vivo study to determine the effect of DA on mouse peritoneum macrophages. Peritoneal exudates were obtained from Balb/c female mice by lavage 4 days after an intraperitoneal injection of 4 ml sterile 4% thioglycollate broth. After washing with RPMI 1640 medium, the cell suspensions were centrifuged at 800 g at 4° C. for 5 min. The red blood cells were eliminated by ACK buffer and the cells were washed and resuspended in RPMI 1640 supplemented with 10% inactivated FBS, 10 mM HEPES, 2 mM glutamine, and 100 U/ml penicillin-[…] streptomycin. The peritoneal macrophages were plated in 24 well tissue culture plate (2×10^5 cells/mL/well) at 37° C. in a 5% CO2 humidified atmosphere. Macrophages were precultured in serum-free RPMI 1640 medium for 24 h to reduce mitogenic effects. Macrophages were pretreated with various concentrations of DA for 1 h prior to LPS treatment and stimulated with LPS (100 ng/mL) for 24 h. Treatment groups were: [table]

[4] = high-dose DA, no significant difference

CC(=O)[O-].CC[N+](CC)(CC(=O)Nc1c(C)cccc1C)Cc1ccccc1 [DA, denatonium acetate]
Body weight at day 10 ([1]; 69.3 mg/kg BID, vs vehicle): significant effect against DSS-induced body weight loss
Combined fecal score during the study period ([1]; DA treatment): significant main effect
Fecal consistency score during the study period ([1]; DA treatment): significant main effect
Fecal occult blood scores during the study period ([1]; DA treatment): significant main effect
Colon length at day 10 [1, 4]: could counteract DSS-induced decrease
Colon weight at day 10 [1, 4]: could counteract DSS-induced decrease
Spleen weight at day 10 ([1]; high-dose DA, no significant effect): trend to counteract DSS-induced spleen weight loss
Protein concentration in lung lavage fluid ([2]; iv bolus 3 mg/kg QD): drastic but not significantly reduced
Protein concentration in lung lavage fluid ([2]; oral 92.4 mg/kg BID): drastic but not significantly reduced
GM-CSF: Significance @24 hour LPS incubation ([3]; DA 1 μM): No sig
IFNγ: Significance @24 hour LPS incubation ([3]; DA 1 μM): No sig
IL-1α: Significance @24 hour LPS incubation ([3]; DA 1 μM): No sig
IL-1β: Significance @24 hour LPS incubation ([3]; DA 1 μM): No sig
IL-2: Significance @24 hour LPS incubation ([3]; DA 1 μM): No sig
IL-4: Significance @24 hour LPS incubation ([3]; DA 1 μM): No sig
IL-6: Significance @24 hour LPS incubation ([3]; DA 1 μM): No sig
IL-7: Significance @24 hour LPS incubation ([3]; DA 1 μM): No sig
IL-10: Significance @24 hour LPS incubation ([3]; DA 1 μM): No sig
IL-12 (p70): Significance @24 hour LPS incubation ([3]; DA 1 μM): No sig
IL-13: Significance @24 hour LPS incubation ([3]; DA 1 μM): No sig
IL-17A: Significance @24 hour LPS incubation ([3]; DA 1 μM): No sig
KC/CXCL1: Significance @24 hour LPS incubation ([3]; DA 1 μM): No sig
LIX: Significance @24 hour LPS incubation ([3]; DA 1 μM): No sig
MCP-1: Significance @24 hour LPS incubation ([3]; DA 1 μM): No sig
MIP-2: Significance @24 hour LPS incubation ([3]; DA 1 μM): No sig
TNF-α: Significance @24 hour LPS incubation ([3]; DA 1 μM): No sig
GM-CSF: Significance @24 hour LPS incubation ([3]; DA 10 μM): no sig
IFNγ: Significance @24 hour LPS incubation ([3]; DA 10 μM): no sig
IL-1α: Significance @24 hour LPS incubation ([3]; DA 10 μM): no sig
IL-1β: Significance @24 hour LPS incubation ([3]; DA 10 μM): no sig
IL-2: Significance @24 hour LPS incubation ([3]; DA 10 μM): no sig
IL-4: Significance @24 hour LPS incubation ([3]; DA 10 μM): no sig
IL-6: Significance @24 hour LPS incubation ([3]; DA 10 μM): no sig
IL-7: Significance @24 hour LPS incubation ([3]; DA 10 μM): no sig
IL-10: Significance @24 hour LPS incubation ([3]; DA 10 μM): no sig
IL-12 (p70): Significance @24 hour LPS incubation ([3]; DA 10 μM): no sig
IL-13: Significance @24 hour LPS incubation ([3]; DA 10 μM): no sig
IL-17A: Significance @24 hour LPS incubation ([3]; DA 10 μM): no sig
KC/CXCL1: Significance @24 hour LPS incubation ([3]; DA 10 μM): no sig
LIX: Significance @24 hour LPS incubation ([3]; DA 10 μM): no sig
MCP-1: Significance @24 hour LPS incubation ([3]; DA 10 μM): no sig
MIP-2: Significance @24 hour LPS incubation ([3]; DA 10 μM): no sig
TNF-α: Significance @24 hour LPS incubation ([3]; DA 10 μM): no sig
GM-CSF: Significance @24 hour LPS incubation ([3]; DA 100 μM): no sig
IFNγ: Significance @24 hour LPS incubation ([3]; DA 100 μM): no sig
IL-1α: Significance @24 hour LPS incubation ([3]; DA 100 μM): no sig
IL-1β: Significance @24 hour LPS incubation ([3]; DA 100 μM): no sig
IL-2: Significance @24 hour LPS incubation ([3]; DA 100 μM): no sig
IL-4: Significance @24 hour LPS incubation ([3]; DA 100 μM): no sig
IL-6: Significance @24 hour LPS incubation ([3]; DA 100 μM): no sig
IL-7: Significance @24 hour LPS incubation ([3]; DA 100 μM): no sig
IL-10: Significance @24 hour LPS incubation ([3]; DA 100 μM): no sig
IL-12 (p70): Significance @24 hour LPS incubation ([3]; DA 100 μM): no sig
IL-13: Significance @24 hour LPS incubation ([3]; DA 100 μM): no sig
IL-17A: Significance @24 hour LPS incubation ([3]; DA 100 μM): no sig
KC/CXCL1: Significance @24 hour LPS incubation ([3]; DA 100 μM): no sig
LIX: Significance @24 hour LPS incubation ([3]; DA 100 μM): no sig
MCP-1: Significance @24 hour LPS incubation ([3]; DA 100 μM): no sig
MIP-2: Significance @24 hour LPS incubation ([3]; DA 100 μM): no sig
TNF-α: Significance @24 hour LPS incubation ([3]; DA 100 μM): no sig
